Read-outs that look alike come from different tables or passages of the source.
What was measured:
ASPC1 cells = experiment: Cellular proliferation (WST) assay, ASPC1; type: cell-based; conditions: Homo sapiens, 72 h; ASPC1, pancreatic; read-out: IC50 at 3 days (+/− SEM)
Experimental: (§1) TC32, TC71, RDES, MMH-ES-1, STA-ET 7.2, A4573, and PC3 cells were grown in RPMI with 10% FBS and 1% HEPES. SKES cells were grown in McCoy's 5A medium with 15% FBS. MCF7, MDA-MB-231, PANC1, and ASPC1 cells were grown in colorless DMEM with 10% FBS. Cells were grown at a plating density of 5,000 – 15,000 cells/well, depending on cell line, in a 96-well plate. Small molecule or vehicle alone (DMSO) were added to cells in appropriate growth media the day after plating. After three days, viable cells were quantified using WST (Roche) according to the manufacturer's protocol. IC50 values were calculated by sigmoidal dose-response curve fit using Prism Graphpad 4.0.

EWS-FLI1 and RHA = experiment: ELISA of binding between EWS-FLI1 and RHA
Experimental: EWS-FLI1 was used to coat the surface of a 96 well plate (MaxiSorb) at a concentration of 150ng/well in 100μL buffer containing 20mM Tris, 500mM sodium chloride, and 1M imidazole. Following overnight incubation, the plate was blocked with 4% BSA in PBS and washed with PBS + 0.1% Tween-20. Small molecules were added at concentrations of 1μM, 3μM, 10μM, and 30μM, followed by RHA (300ng/well) and allowed to incubate overnight. Following washing, incubation with RHA antibody (Everest) and anti-goat secondary, protein binding was detected using a TMB Peroxidase EIA Substrate Kit (Bio-Rad) per the manufacturer's instructions.

STA-ET 7.2 cells = experiment: Cellular proliferation (WST) assay, STA-ET 7.2; type: cell-based; conditions: 72 h; STA-ET 7.2, ESFT (Type 2); read-out: IC50 at 3 days (+/− SEM)
Experimental: as §1

MCF7 cells = experiment: Cellular proliferation (WST) assay, MCF7; type: cell-based; conditions: Homo sapiens, 72 h; MCF7, breast; read-out: IC50 at 3 days (+/− SEM)
Experimental: as §1

ESFT cell lines = experiment: Cellular proliferation (WST) assay, panel of seven ESFT cell lines; type: cell-based; conditions: 72 h
Experimental: as §1

RDES cells = experiment: Cellular proliferation (WST) assay, RDES; type: cell-based; conditions: for IC50: RD-ES, 72 h, RDES, ESFT (Type 2), read-out: IC50 at 3 days (+/− SEM)
Experimental: as §1

[1] = Pharmacokinetic analysis in rats; type: in vivo; conditions: both sexes, Sprague-Dawley, plasma, po; rat, gavage administration
Experimental: (§2) All pharmacokinetic studies were performed using Sprague-Dawley rats. Nine rats per gender were assigned to nine dose groups, which received either a single IV injection of YK-4-279, (S)-YK-4-279, or (R)-YK-4-279 at a target dose of 25 mg/kg, or a single gavage administration of small molecule at a target dose level of 25 or 50 mg/kg. Plasma was obtained from the rats and samples were processed by liquid extraction followed by analysis using liquid chromatography with mass spectrometry (LC/MS). Average urine concentrations were measured at intervals from 0-4, 4-8, and 8-12 hours after dosing. 18 Fox Chase SCID Beige mice were injected with A4573 cells and received six doses of (S)-YK-4-279 at 75 mg/kg to determine concentration of small molecule in the tumors.

[2] = test system: Cyclin D1b/D1a mRNA level in A673i cells; experiment: Quantitative RT-PCR of Cyclin D1b/D1a mRNA in A673i cells; type: cell-based; conditions: 1μM, 8 hours
Experimental: A673i cells were treated with 1μM small molecule for 8 hours. Positive control cells were treated with tetracycline for 72 hours to knock down expression of EWS-FLI1. Total RNA was extracted using an RNeasy Micro Kit (Qiagen) and reverse transcribed using the Transcriptor First Strand cDNA Synthesis Kit (Roche) per the manufacturer's instructions. qPCR was performed using an Eppendorf Mastercycler Realplex with FastStart Universal SYBR Green Master with ROX (Roche) with primers for 18S, CyclinD1a, and CyclinD1b. Data were analyzed for expression relative to 18S using the comparative Ct method. Data from four separate experiments performed in duplicate were averaged.

[3] = test system: caspase-3 activity in A4573 ESFT cells; experiment: Caspase-3 activation dose titration in A4573 cells; type: cell-based; conditions: between 0.3 and 1μM, 18 hours
Experimental: (§3) Cells were plated at 100,000 – 200,000 cells/well, depending on cell line, in a 12 well plate. Small molecule was added the following day. 18 hours later, lysates were collected using the manufacturer's protocol for the AC-DEVD-AMC substrate (BD Bioscience Pharmingen). Caspase-3 substrate was incubated for 2 hours with protein lysate and fluorescence from cleaved substrate was measured in a fluorimeter. Fluorescent signal was then normalized to protein lysate via BCA assay.

[4] = test system: caspase-3 activity in ESFT cells (TC32, RDES, SKES, A4573, MMH-ES-1, STA-ET 7.2); experiment: Caspase-3 activity in ESFT cells; type: cell-based; conditions: 10μM, 18 hours
Experimental: as §3

[5] = Evaluation of racemization in A4573 ESFT xenograft tumors; type: in vivo; conditions: A4573 tumor-bearing SCID mice, IP (75 mg/kg), tumors resected two hours following dosing
Experimental: as §2

PANC1 cells = conditions: PANC1 from a different source, previously reported; cited from earlier work
MDA-MB-231 cells = conditions: MDA-MB-231 from a different source, previously reported; cited from earlier work
[6] = parameters: method as in PMID 19584866; conditions: xenograft mice, 75 mg per kg body weight; cited from earlier work
[7] = test system: non-transformed cell lines; parameters: method as in PMID 19584866; conditions: racemic; cited from earlier work
[8] = mean over seven ESFT cell lines, read-out: Mean IC50 at 3 days (+/− SEM)
[9] = seven EWS-FLI1 expressing cell lines, three days, read-out: range of mean IC50 values across ESFT cell lines
[10] = as little as 1μM small molecule

| Compound | IC50 (ASPC1 cells) [µM] | inhibition of EWS-FLI1/RHA binding (EWS-FLI1 and RHA; 30μM) | IC50 (STA-ET 7.2 cells) [µM] | IC50 (MCF7 cells) [µM] | IC50 (ESFT cell lines; [8]) [µM] | IC50 (ESFT cell lines; [9]) [µM] | IC50 (RDES cells) [µM] | bioavailability [1] [%] | D1b/D1a mRNA ratio [2] | inhibition of EWS-FLI1/RHA binding (EWS-FLI1 and RHA; [10]) | slope (m), rate of caspase activity increase [3] | caspase-3 activation, average across the panel of six ESFT cell lines [4] [fold] | Percent of (S)-YK-4-279 present in tumor [5] [%] | fold-difference in IC50 between the racemic and the active enantiomer (RDES cells; RDES cells) [fold] | more potent at the D1b/D1a reduction than racemic [2] | IC50 (PANC1 cells) [µM] | IC50 (MDA-MB-231 cells) [µM] | toxicity [6] | IC50 [7] [µM] |
| --- | --- | --- | --- | --- | --- | --- | --- | --- | --- | --- | --- | --- | --- | --- | --- | --- | --- | --- | --- |
| COc1ccc(C(=O)C[C@]2(O)C(=O)Nc3c(Cl)ccc(Cl)c32)cc1 [(R)-YK-4-279] | > 30 | does not inhibit the binding | 21.2 | > 30 | 18.5 | 11.7 to 26 | 12.7 | 8 to 15 | maintained a D1b/D1a ratio equivalent to the vehicle treated cells | – | – | – | – | – | – | – | – | – | – |
| COc1ccc(C(=O)C[C@@]2(O)C(=O)Nc3c(Cl)ccc(Cl)c32)cc1 [(S)-YK-4-279] | 8.16 | – | 0.31 | 19.5 | 0.34 | 0.16 to 0.87 | 0.87 | 2 to 6 | reduced this ratio to a level equivalent to the EWS-FLI1 reduction | able to inhibit the protein-protein interaction | 7.23 ± 0.32 | 10.3 | 100 | 1.18 | approximately 35% | – | – | – | – |
| COc1ccc(C(=O)CC2(O)C(=O)Nc3c(Cl)ccc(Cl)c32)cc1 (stereo not shown) [YK-4-279] | 14.3 | – | 0.6 | 22.8 | 1.02 | 0.33 to 1.83 | 1.03 | – | reduction in the D1b/D1a levels | able to inhibit the protein-protein interaction | 4.43 ± 0.66 | 8.8 | – | – | – | > 20 | > 20 | no toxicity | > 30 |
